The test system of series [1] is Plasma. Put plainly: Drug level in Sprague-Dawley rat plasma treated with 5 mg/kg, iv after 10 mins to 4 hrs. Format: ADME, organism-based. On the set-up: dose 5 mg/kg, route intravenous. Particulars: in vivo.
Series [2] addresses Prostaglandin G/H synthase 1 (Homo sapiens) (UniProt P23219). Put plainly: Inhibition of recombinant COX-1 (unknown origin) at 0.1 uM.
A short description of series [3]: Solubility of the compound in water at 25 degC by HPLC analysis. Type of series: physicochemical.
Series [4] has as its system Mus musculus. Kind of series: Analgesic activity in Kun Ming mouse model assessed as inhibition of acetic acid-induced visceral pain at 0.1 mmol/kg, iv administered 5 mins prior to acetic acid challenge measured after 15 mins by writhing assay relative to control. Format: functional. The arrangement: scale not given: the % may be the effect or the level left. In general terms: Writhing tests count abdominal constrictions after an irritant is injected.

Series [5] deals with T1, Prostaglandin G/H synthase 2 (Homo sapiens) (UniProt P35354).
T1 sequence (whole entry): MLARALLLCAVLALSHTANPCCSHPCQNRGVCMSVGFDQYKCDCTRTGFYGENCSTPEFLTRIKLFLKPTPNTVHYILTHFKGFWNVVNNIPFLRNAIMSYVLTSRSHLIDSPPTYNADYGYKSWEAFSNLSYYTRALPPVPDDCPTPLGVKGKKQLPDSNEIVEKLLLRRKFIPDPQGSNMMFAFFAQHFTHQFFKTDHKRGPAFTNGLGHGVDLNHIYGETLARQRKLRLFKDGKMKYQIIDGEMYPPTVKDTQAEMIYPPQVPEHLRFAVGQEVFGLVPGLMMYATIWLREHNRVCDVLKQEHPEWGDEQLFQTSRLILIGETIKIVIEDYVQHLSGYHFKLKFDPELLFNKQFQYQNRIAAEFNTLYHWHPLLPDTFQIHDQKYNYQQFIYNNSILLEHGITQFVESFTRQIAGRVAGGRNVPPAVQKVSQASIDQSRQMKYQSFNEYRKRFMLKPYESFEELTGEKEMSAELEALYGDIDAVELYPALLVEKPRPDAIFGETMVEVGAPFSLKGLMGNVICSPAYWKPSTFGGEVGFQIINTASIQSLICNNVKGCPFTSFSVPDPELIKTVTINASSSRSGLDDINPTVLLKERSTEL
Kind of series: Inhibition of recombinant COX-2 (unknown origin) at 0.1 uM.

Series [6] has as its system Mus musculus. Kind of series: Analgesic activity in Kun Ming mouse model assessed as inhibition of acetic acid-induced visceral pain at 0.1 mmol/kg, iv administered 5 mins prior to acetic acid challenge measured after 30 mins by writhing assay relative to control. Format: functional. The arrangement: scale not given: the % may be the effect or the level left.
Series [7] concerns the target Prostaglandin G/H synthase 1 (Homo sapiens) (UniProt P23219). Put plainly: Inhibition of recombinant COX-1 (unknown origin) at 10 uM.
Series [8] deals with T1, Prostaglandin G/H synthase 2 (Homo sapiens). Put plainly: Inhibition of recombinant COX-2 (unknown origin) at 10 uM.
Series [9] can be described thus: Toxicity in iv dosed Kun Ming mouse. Type of series: organism-based. Particulars: in vivo.
Series [10] concerns Plasma. Kind of series: Prodrug conversion in Sprague-Dawley rat plasma assessed as PC407 formation at 5 mg/kg, iv after 1.5 hrs. Format: ADME, organism-based. The arrangement: dose 5 mg/kg, route intravenous. Particulars: in vivo.

In brackets after ≈: the same amount, converted by molar mass. Activity calls are given as the source filed them. The rule behind the calls is not given here.

Chain of Prostaglandin G/H synthase 1 (Homo sapiens) (P23219 whole entry): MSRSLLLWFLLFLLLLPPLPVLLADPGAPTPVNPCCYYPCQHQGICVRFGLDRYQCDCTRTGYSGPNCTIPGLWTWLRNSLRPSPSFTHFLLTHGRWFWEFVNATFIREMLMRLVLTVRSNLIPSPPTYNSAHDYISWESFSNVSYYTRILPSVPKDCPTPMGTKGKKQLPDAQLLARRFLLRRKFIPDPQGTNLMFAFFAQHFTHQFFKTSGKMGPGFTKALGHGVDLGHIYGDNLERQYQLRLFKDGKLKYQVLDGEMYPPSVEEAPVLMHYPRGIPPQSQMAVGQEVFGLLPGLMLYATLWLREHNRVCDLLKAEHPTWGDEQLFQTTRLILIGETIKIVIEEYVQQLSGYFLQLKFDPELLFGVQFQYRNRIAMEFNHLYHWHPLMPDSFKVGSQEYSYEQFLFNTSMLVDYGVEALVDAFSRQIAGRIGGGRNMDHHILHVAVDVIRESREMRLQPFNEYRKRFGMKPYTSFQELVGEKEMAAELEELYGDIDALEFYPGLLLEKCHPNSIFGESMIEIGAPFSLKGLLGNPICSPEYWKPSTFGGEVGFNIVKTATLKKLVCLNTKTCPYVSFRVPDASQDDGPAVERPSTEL

In general, inhibition refers to how much of the control response was suppressed. Usually solubility stands for the concentration that dissolves in the medium under given conditions. As to `NS(=O)(=O)c1ccc(-n2nc(C(F)(F)F)cc2-c2ccc3ccccc3c2)cc1`, in the series with Plasma [1], the Drug uptake result is “Active”. Further, the inhibition entry in series [2] is “inactive”. In series [3], this compound showed a solubility of 0.0016 mg/mL (≈ 3.83 µM). For the same compound, the figures for the Activity in the series with Mus musculus [4] and with Mus musculus [6] were 83% and 81%, respectively. In addition, the inhibition in series [5] amounted to 100%.
For `O=C([O-])CCC(=O)[N-]S(=O)(=O)c1ccc(-n2nc(C(F)(F)F)cc2-c2ccc3ccccc3c2)cc1.[Na+].[Na+]`, the inhibition entry in series [7] and in series [8] was “inactive” throughout. For the same compound, the MTD in [9] was over 1500 mg/kg. In addition, in series [3], the concentration in solution (solubility) came to 20.3 mg/mL. The values for the Activity in the series on Mus musculus [4] and with Mus musculus [6] were 77% and 83%, respectively. Further, in the series on Plasma [10], the Drug metabolism entry is “metabolite_detected”.
